According to patent US20240110130A1, “COMPOSITION” (Conopco, Inc., d/b/a UNILEVER, priority 2021, published 2024):

Experiment: Colour measurement (yellowing) of liquid laundry compositions comprising DHA
Assay type: physicochemical
Conditions: added to laundry liquid comprising DHA salt

O=S([O-])[O-].[K+].[K+] [sulphite, Potassium Sulfite]
effect on yellowing: reduces yellowing
